From patent US6515025B2, “Use of ethynyl alanine amino diol compounds to inhibit enzymatic conversion of angiotensinogen to angiotensin I” (Pharmacia Corporation, priority 1991, dated 2003)
“And” between values parts separate entries of the source, which are not always exact repeats. Identical values can stand only once. Like-named read-outs stand apart in the source and are kept apart here.

Key:
[1] = tested on: salt-depleted, conscious marmosets; assay: Marmoset blood pressure reduction on intravenous administration; type: in vivo, Marmoset monkeys (Callithrix jacchus); conditions: 100 micrograms/kg intravenously
Protocol: The blood pressure reducing activity of the renin inhibitor compound of Example 1 was determined in vivo in Marmoset monkeys using the following procedure. Common Marmoset monkeys (Callithrix jacchus, Charles River, both sexes, body weight ca. 400 g) were placed on a modified high protein low sodium diet (Purina, St. Louis, Mo.) for 1 week. 24 hours prior to the administration of test compound, Lasix (5 mg/kg, im) was given. On the day of the test, the animal was anesthetized with isoflurane, body weight recorded, and the left femoral artery and vein were catheterized. The animal was allowed to regain consciousness and the title compound of Example 1 (100 micrograms/kg) was administered intravenously in 0.1 mL/kg polyethylene glycol 400 at time zero. Mean arterial blood pressure (MABP) in mmHg was then recorded every ten minutes until 120 minutes.

[2] = Oral bioavailability studies in dogs (plasma concentration by bioassay); type: in vivo; conditions: dog; for concentration at 2 min / concentration at 5 min: iv
Protocol: The bioavailability in marmosets and dogs was determined by sampling the blood via the femoral vein at various time points after administering the renin inhibitor compounds of the invention in polyethylene glycol 400 at an intragastric dose of 10 mg/kg or at an intravenous dose of 1 mg/kg. Compound concentration in plasma was determined using the bioassay technique described below. The percent bioavailability was calculated by dividing the area under the concentration-vs.-time curve obtained from the intragastric experiment by the area under the concentration-vs.-time curve obtained from the intravenous experiment (adjusting for different doses), and multiplying the result by 100%. The bioavailibility of Example 1 compound is 27% in marmosets and 33% in dogs.
Renin inhibitor plasma concentrations were determined by a bioassay. The plasma samples were extracted with acetonitrile and the extract was evaporated to dryness under nitrogen. Residue was dissolved in 4% bovine serum albumin containing 0.9% NaCl and 5% EDTA. The dissolved residue (0.1 ml) was incubated with a reaction mixture containing human plasma (0.12 ml), 5% phenylmethysulfonylfluoride (1.2 ul), 10% neomycin (2.4 ul), 0.5 M TES buffer (pH 7.4, 24 ul), and 0.6 mU/ml recombinant human renin (1000 U/mg, 50 ul) at 37° C. for 90 minutes. The renin activity was determined by a standard angiotensin I radioimmunoassay (New England Nuclear Corp.). The amount of test compound in the plasma was determined by comparing the extent of inhibition of renin activity with that produced by a known amount of test compound added to plasma and analyzed above.

C#CC[C@H](NC(=O)C(CC(=O)N(C)CCN(C)C)Cc1ccccc1)C(=O)NC(CC1CCCCC1)[C@@H](O)C(O)CC(C)C (relative stereo) [Example 1, N1-[1R*-[[[1S,1R*-(cyclohexylmethyl)-2S*,3R*-dihydroxy-5-methylhexyl]amino]carbonyl]-3-butynyl]-N4-[2-(dimethylamino)ethyl]-N4-methyl-2S*-(phenylmethyl)butanediamide]
MABP ([1]; 10 min (n = 3)): 106 mmHg
MABP ([1]; 20 min (n = 3)): 97 mmHg
MABP ([1]; 30 min (n = 3)): 93 mmHg
MABP ([1]; 40 min (n = 3)): 92 mmHg
MABP ([1]; 50 min (n = 3)): 90 mmHg
MABP ([1]; 60 min (n = 3)): 89 mmHg
MABP ([1]; 70 min (n = 3)): 87 mmHg
MABP ([1]; 80 min (n = 3)): 88 mmHg
MABP ([1]; 90 min (n = 3)): 89 mmHg
MABP ([1]; 100 min (n = 3)): 91 mmHg
MABP ([1]; 110 min (n = 3)): 93 mmHg
MABP ([1]; 120 min (n = 3)): 94 mmHg
MABP ([1]; time 0 min (n = 3)): 118 mmHg
effect on blood pressure (in words) ([1]; salt-depleted, conscious marmosets): lowers blood pressure
Oral (%) Bioavail, Mean ± SE ([2]; IG 10 mg/kg vs IV 1 mg/kg): 33.1 ± 3.8%
Oral (%) Bioavail ([2]; IG 10 mg/kg vs IV 1 mg/kg, individual animals): 35.8% and 25.6% and 38.0%
Estimated Plasma Concentration ([2]; IG at 10 mg/kg, 15 min, individual animals, 10 mg/kg): 105.7 ng/mL and <2.0 ng/mL and 265.6 ng/mL
Estimated Plasma Concentration ([2]; IG at 10 mg/kg, 30 min, individual animals, 10 mg/kg): 495.9 ng/mL and 330.4 ng/mL and 864.7 ng/mL
Estimated Plasma Concentration ([2]; IG at 10 mg/kg, 1 hr, individual animals, 10 mg/kg): 859.6 ng/mL
Estimated Plasma Concentration ([2]; IG at 10 mg/kg, 2 hr, individual animals, 10 mg/kg): 352.7 ng/mL and 554.5 ng/mL
Estimated Plasma Concentration ([2]; IG at 10 mg/kg, 4 hr, individual animals, 10 mg/kg): 68.8 ng/mL and 130.3 ng/mL
Estimated Plasma Concentration ([2]; IG at 10 mg/kg, 6 hr, individual animals, 10 mg/kg): 47.1 ng/mL and 72.4 ng/mL
Estimated Plasma Concentration ([2]; IG at 10 mg/kg, 8 hr, individual animals, 10 mg/kg): 25.4 ng/mL and 45.4 ng/mL
Estimated Plasma Concentration ([2]; IG at 10 mg/kg, 24 hr, individual animals, 10 mg/kg): 8.4 ng/mL and 8.0 ng/mL
Estimated Plasma Concentration ([2]; IV at 1 mg/kg, 2 min, individual animals, 1 mg/kg): 3284.4 ng/mL and 2982.7 ng/mL
Estimated Plasma Concentration ([2]; IV at 1 mg/kg, 5 min, individual animals, 1 mg/kg): 680.9 ng/mL and 521.1 ng/mL
Estimated Plasma Concentration ([2]; IV at 1 mg/kg, 10 min, individual animals, 1 mg/kg): 307.1 ng/mL and 218.0 ng/mL
Estimated Plasma Concentration ([2]; IV at 1 mg/kg, 15 min, individual animals, 1 mg/kg): 144.4 ng/mL and 146.9 ng/mL
Estimated Plasma Concentration ([2]; IV at 1 mg/kg, 30 min, individual animals, 1 mg/kg): 102.8 ng/mL and 122.5 ng/mL
Estimated Plasma Concentration ([2]; IV at 1 mg/kg, 1 hr, individual animals, 1 mg/kg): 67.6 ng/mL and 50.0 ng/mL
Estimated Plasma Concentration ([2]; IV at 1 mg/kg, 2 hr, individual animals, 1 mg/kg): 56.0 ng/mL and 69.8 ng/mL
Estimated Plasma Concentration ([2]; IV at 1 mg/kg, 4 hr, individual animals, 1 mg/kg): 23.5 ng/mL
Estimated Plasma Concentration ([2]; IV at 1 mg/kg, 6 hr, individual animals, 1 mg/kg): 10.2 ng/mL and 13.5 ng/mL
Estimated Plasma Concentration ([2]; IV at 1 mg/kg, 8 hr, individual animals, 1 mg/kg): 4.9 ng/mL and 6.1 ng/mL
Estimated Plasma Concentration ([2]; IV at 1 mg/kg, 24 hr, individual animals, 1 mg/kg): 1.5 ng/mL and 1.3 ng/mL
Vd ([2]; individual animals): 8.7 L/kg and 8.3 L/kg
t1/2 ([2]; individual animals): 4.4 h and 4.3 h
half-life ([2]; plasma, dogs, read-out: terminal half-life (converted)): 4.7 h
Vd ([2]; plasma, dogs, read-out: volume of distribution): 9.5 L/kg
Vd ([2]; plasma, individual animals, read-out: Vd): 11.5 L/kg
half-life ([2]; plasma, individual animals, read-out: t1/2 (converted)): 5.3 h
concentration at 2 min ([2]; plasma, 1 mg/kg, IV at 1 mg/kg, 2 min, individual animals, read-out: Estimated Plasma Concentration): 2420 ng/mL
concentration at 2 min ([2]; plasma, 1 mg/kg, IV at 1 mg/kg, 2 min, read-out: Estimated Plasma Concentration, Mean ± SE): 2890 ± 254 ng/mL
concentration at 5 min ([2]; plasma, 1 mg/kg, IV at 1 mg/kg, 5 min, individual animals, read-out: Estimated Plasma Concentration): 613 ng/mL
concentration at 5 min ([2]; plasma, 1 mg/kg, IV at 1 mg/kg, 5 min, read-out: Estimated Plasma Concentration, Mean ± SE): 605 ± 46.3 ng/mL
